Results taken from patent US4435329A, “Substituted N-(ω-aroylpropionyl) derivatives of α-amino acids and esters thereof” (American Cyanamid Company, priority 1981, dated 1984).

Tested on: angiotensin converting enzyme
Test: in vitro spectrophotometric assay for inhibition of angiotensin converting enzyme (method of Cushman and Cheung)
Format: biochemical
Details: crude extract of ACE from rabbit lung acetone powder; substrate benzoyl-glycyl-histidyl-leucine; 30 minutes at 37° C.; result in words only
Protocol: The in vitro activity for inhibition of the angiotensin converting enzyme was measured by the method of D. W. Cushman and H. S. Cheung, Biochem. Pharmacol., Vol. 20, pages 1637-1648 (1972), using benzoyl-glycyl-histidyl-leucine as the substrate. The reaction mixture consisted of 50 μl. of potassium phosphate (500 mM., pH of […]), 30 μl. of sodium chloride (2500 mM.), 25 μl. of substrate (50 mM.), 30 to 50 μl. of the crude extract of ACE, 10 μl. of the test compound (2.5 mM.) or vehicle, and a suitable amount of distilled water to give a total volume of 250 μl. This reaction mixture was incubated for 30 minutes at 37° C. and the reaction was then terminated by the addition of 250 μl. of 1 N hydrochloric acid. The hippuric acid was then extracted with 1.5 ml. of ethyl acetate by vortex mixing for 15 seconds. After centrifugation, one ml. of the ethyl acetate layer was pipetted into a new tube and evaporated to dryness. The extracted hippuric acid was then dissolved in one ml. of water and the amount of this acid was then measured by its absorbance at 228 nm. […] The activity of the ACE inhibitor was calculated as the percent inhibition of ACE activity compared to the control value of that particular assay. […]

inhibition of the angiotensin converting enzyme	SMILES
angiotensin converting enzyme inhibitors	CC(=O)SC(CC(=O)N[C@H](C(=O)O)C(C)C)C(=O)c1ccc(Br)cc1 (stereo partly drawn) [Example 1, N-[3-Acetylthio-3-(4-bromobenzoyl)propionyl]-L-valine]
angiotensin converting enzyme inhibitors	COc1ccc(C(=O)C(CC(=O)N[C@@H](Cc2ccccc2)C(=O)O)SC(C)=O)cc1F (stereo partly drawn) [Example 23, N-[3-Acetylthio-3-(3-fluoro-4-methoxybenzoyl)propionyl]-L-phenylalanine]
